Source: the NIST ThermoML archive (doi:10.1016/j.jct.2018.08.005)

Assay: xn = mol fraction of the nth substance listed
Conditions: Liquid; for speed of sound: Frequency=3 MHz, Pulse-echo method; for mass density: Vibrating tube method

CCOC(F)(C(F)(F)C(F)(F)C(F)(F)F)C(F)(C(F)(F)F)C(F)(F)F (stereo not given) [2-trifluoromethyl-3-ethoxydodecafluorohexane] + CC(C)OC(C)C
Conditions	mass density, x1 = 0.25 [kg/m3]	mass density, x1 = 0.375 [kg/m3]	mass density, x1 = 0.5 [kg/m3]	mass density, x1 = 0.625 [kg/m3]	mass density, x1 = 0.75 [kg/m3]	speed of sound, x1 = 0.25 [m/s]	speed of sound, x1 = 0.375 [m/s]	speed of sound, x1 = 0.5 [m/s]	speed of sound, x1 = 0.625 [m/s]	speed of sound, x1 = 0.75 [m/s]
293.15 K, 100 kPa	1053.2	1178.3	1289.5	1391.2	1478.4	802	756.1	719.2	701.5	686.9
293.15 K, 10000 kPa	1071	1197.9	1310.6	1413.6	1501.4	–	–	–	–	–
293.15 K, 20000 kPa	1086.1	1214.9	1328.9	1432.8	1521.4	930.1	879	839	818.1	799.8
293.15 K, 30000 kPa	1099.4	1229.8	1344.9	1449.9	1539	–	–	–	–	–
293.15 K, 40000 kPa	1111.2	1243.1	1359.3	1465.1	1554.8	1029.9	975.3	933	909.4	888.3
293.15 K, 50000 kPa	1122.1	1255.2	1372.4	1479	1569.2	–	–	–	–	–
293.15 K, 60000 kPa	1132.1	1266.3	1384.4	1491.7	1582.4	1113.8	1056.9	1012.2	988	963.7
293.15 K, 70000 kPa	1141.5	1276.8	1395.6	1503.7	1594.8	–	–	–	–	–
293.15 K, 80000 kPa	1150.2	1286.4	1406.1	1514.7	1606.3	1187.2	1127.9	1081.1	1056.3	1029.1
293.15 K, 90000 kPa	1158.4	1295.5	1416	1525.1	1617.1	–	–	–	–	–
293.15 K, 100000 kPa	1166.2	1304.3	1425.3	1535	1627.3	1254	1190.8	1143	1116.9	1088.5
293.15 K, 110000 kPa	1173.5	1312.4	1434.1	1544.3	1637.1	–	–	–	–	–
293.15 K, 120000 kPa	1180.7	1320.3	1442.6	1553.2	1646.4	–	–	–	–	–
293.15 K, 130000 kPa	1187.4	1327.8	1450.7	1561.8	1655.3	–	–	–	–	–
293.15 K, 140000 kPa	1193.8	1335.1	1458.3	1569.9	1663.8	–	–	–	–	–
303.15 K, 100 kPa	1038.3	1161.8	1271.6	1372.4	1458.7	763.8	–	687.9	670.9	656
303.15 K, 10000 kPa	1057.2	1183	1294.5	1396.6	1483.7	–	–	–	–	–
303.15 K, 20000 kPa	1073.6	1201.2	1314.1	1417.3	1505.1	898.1	848.7	812.7	793.7	773.5
303.15 K, 30000 kPa	1087.7	1217	1331.1	1435.3	1523.8	–	–	–	–	–
303.15 K, 40000 kPa	1100.3	1231.1	1346.3	1451.3	1540.4	1001.7	948.6	909.1	889.5	864.7
303.15 K, 50000 kPa	1111.7	1243.8	1360	1465.8	1555.5	–	–	–	–	–
303.15 K, 60000 kPa	1122.1	1255.4	1372.6	1479.2	1569.3	1089.1	1032.1	989.8	969.5	941.8
303.15 K, 70000 kPa	1131.8	1266.2	1384.2	1491.4	1582.1	–	–	–	–	–
303.15 K, 80000 kPa	1140.8	1276.1	1395.1	1502.8	1594	1164.4	1104	1059.8	–	1008.7
303.15 K, 90000 kPa	1149.3	1285.5	1405.2	1513.6	1605.2	–	–	–	–	–
303.15 K, 100000 kPa	1157.3	1294.3	1414.8	1523.7	1615.8	1231.9	1170.1	1123	1101.7	1068.1
303.15 K, 110000 kPa	1164.9	1302.8	1423.9	1533.3	1625.8	–	–	–	–	–
303.15 K, 120000 kPa	1172.1	1310.8	1432.6	1542.4	1635.3	–	–	–	–	–
303.15 K, 130000 kPa	1178.8	1318.4	1440.8	1551.2	1644.4	–	–	–	–	–
303.15 K, 140000 kPa	1185.4	1325.9	1448.7	1559.5	1653.1	–	–	–	–	–
313.15 K, 100 kPa	1022.4	1144.5	1253.4	1351.8	1438.4	729.6	–	656.3	641.2	626.5
313.15 K, 10000 kPa	1042.9	1167.7	1278.3	1378.1	1465.4	–	–	–	–	–
313.15 K, 20000 kPa	1060.3	1187.2	1299.2	1400.1	1488.1	870.2	821.7	786.8	769.5	749.4
313.15 K, 30000 kPa	1075.3	1203.9	1317.2	1419.2	1507.8	–	–	–	–	–
313.15 K, 40000 kPa	1088.5	1218.6	1333.1	1436	1525.3	975.8	924.1	885.6	866.8	843.3
313.15 K, 50000 kPa	1100.5	1232	1347.4	–	–	–	–	–	–	–
